Experimental data reported in PMC9271048, “Probing strigolactone perception mechanisms with rationally designed small-molecule agonists stimulating germination of root parasitic weeds” (Nature Communications, 2022).
Like-named read-outs stand apart in the source and are kept apart here.

How the values were obtained:
[1] = target: T1, ShHTL7 (Striga hermonthica, UniProt A0A0M3PNA2); test: Competitive inhibition of ShHTL7 with Yoshimulactone Green (YLG) as substrate; type: biochemical
Outline: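 YLG hydrolysis by ShHTL7 followed by fluorescence (ex 480/em 520 nm) every 1 min for 30 min; compounds and YLG from fresh DMSO stocks. After subtracting no-enzyme background, the linear 8-min increase was used; IC50 fitted from relative inhibition versus compound concentration.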

[2] = target: T1, ShHTL7; test: ShHTL7-hydrolysis reaction analysis (HPLC); type: biochemical; conditions: 10 μM compound, 30 °C, 30 min; Supplementary Figs. 11, 20a, 24a
Outline: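 Compounds at 10 μM were incubated with 10 μg recombinant ShHTL7 or its mutants in PBS (pH 7.3) at 30 °C for 30 min, then quenched with methanol. The remaining compound was quantified by HPLC, and hydrolysis was expressed relative to a protein-free buffer control (n = 3).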

[3] = test system: PaKAI2s (5 KAI2 protein homologs in P. aegyptiaca); test: YLG-based competition assay on KAI2 protein homologs of P. aegyptiaca; type: biochemical, Phelipanche aegyptiaca; conditions: Supplementary Fig. 27
From the text: (§1) In P. aegyptiaca, 5 KAI2s have been proposed as the SL receptors for the regulation of seed germination. […] The high sequence similarity may explain the consistency of these compounds in inducing germination in both S. hermonthica and P. aegyptiaca.
(§2) The excitation and emission wavelengths of YLG are 480 and 520 nm, respectively. We used a fluorescence spectrophotometer (CARY Eclipse) to detect the fluorescence intensity change of YLG during the enzymatic hydrolysis assay process. All the testing compounds and YLG were dissolved in DMSO and prepared as stock solutions just before use. […] The changes of fluorescence at 520 nm of each well were recorded every 1 min for 30 min. Using the reaction mixture without adding enzyme and tested compounds as the background control. After subtracting the background hydrolysis, a linear fluorescence increase in 8 min was used for further inspection. The IC50 values were determined via fitting relative inhibition percentages with the varying concentrations of compounds in Microsoft Excel.
(§3) Supplementary Fig. 27. Binding of compounds 4a, (R)- and (S)-4a, and 4g-i to the HTL proteins in S. hermonthica and KAI2 protein homologs in P. aegyptiaca. In the competitive inhibitory activity assay, YLG (3 µM) was used as the fluorogenic substrate. Error bar indicates SD (n = 3 biologically independent experiments).
(§4) (1 picture or pasted object on this page, not shown here)

[4] = test system: ShHTLs (10 HTL proteins in S. hermonthica); test: YLG-based competition assay on HTL proteins of S. hermonthica; type: biochemical, Striga hermonthica; conditions: Supplementary Fig. 27
From the text: as §1, §2, §3, §4

T1 sequence (A0A0M3PNA2 entry or part of it): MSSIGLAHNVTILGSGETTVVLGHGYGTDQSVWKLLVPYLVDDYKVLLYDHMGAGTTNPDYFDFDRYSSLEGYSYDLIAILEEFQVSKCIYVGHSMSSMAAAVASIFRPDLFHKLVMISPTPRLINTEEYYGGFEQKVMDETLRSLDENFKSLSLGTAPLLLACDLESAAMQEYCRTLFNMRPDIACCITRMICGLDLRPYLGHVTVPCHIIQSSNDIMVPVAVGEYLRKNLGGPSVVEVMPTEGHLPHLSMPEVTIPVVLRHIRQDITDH

`CC1=CC(CC(=O)N2CCN(C(=O)COc3ccc(Br)cc3C)CC2)OC1=O` (stereo not shown) [4i] showed an IC50 ([1]; ShHTL7, YLG competition, Supplementary Fig. 27, read-out: IC50, replicate 1) of 5.98 µM, an IC50 ([1]; ShHTL7, YLG competition, Supplementary Fig. 27, read-out: IC50, replicate 2) of 5.2 µM and an IC50 ([1]; ShHTL7, YLG competition, Supplementary Fig. 27, read-out: IC50, replicate 3) of 4.35 µM. The IC50 ([1]; wild-type ShHTL7, average of 3, source data of Fig. 2a,b, Supplementary Figs. 8a, 9a, 20b, read-out: IC50, competitive ShHTL7 inhibition (YLG), source data average) was 5.18 µM, the “relative percentage of hydrolysis by ShHTL7, source data average” value [2] was -2.582% and the IC50 ([3]; KAI2C, YLG competition, read-out: IC50, replicate 1) was 48.7 µM. The IC50 ([3]; KAI2C, YLG competition, read-out: IC50, replicate 2) was 57 µM, the IC50 ([3]; KAI2C, YLG competition, read-out: IC50, replicate 3) was 49.5 µM and the IC50 ([3]; KAI2C, average of 3 replicates, read-out: IC50, average) was 51.7 µM. It also gave an IC50 ([3]; KAI2d1, YLG competition, read-out: IC50, replicate 1) of 24 µM, an IC50 ([3]; KAI2d1, YLG competition, read-out: IC50, replicate 2) of 16.7 µM and an IC50 ([3]; KAI2d1, YLG competition, read-out: IC50, replicate 3) of 20.1 µM. The IC50 ([3]; KAI2d1, average of 3 replicates, read-out: IC50, average) was 20.3 µM, the IC50 ([3]; KAI2d2, YLG competition, read-out: IC50, replicate 1) was 54.2 µM and the IC50 ([3]; KAI2d2, YLG competition, read-out: IC50, replicate 2) was 57.7 µM. The IC50 ([3]; KAI2d2, YLG competition, read-out: IC50, replicate 3) was 57.5 µM, the IC50 ([3]; KAI2d2, average of 3 replicates, read-out: IC50, average) was 56.5 µM and the IC50 ([3]; KAI2d3, YLG competition, read-out: IC50, replicate 1) was 51.4 µM. The IC50 ([3]; KAI2d3, YLG competition, read-out: IC50, replicate 2) was 41.1 µM, the IC50 ([3]; KAI2d3, YLG competition, read-out: IC50, replicate 3) was 40.4 µM and the IC50 ([3]; KAI2d3, average of 3 replicates, read-out: IC50, average) was 44.3 µM. For the same compound, the IC50 ([3]; KAI2d4, YLG competition, read-out: IC50, replicate 1) was 30.7 µM, the IC50 ([3]; KAI2d4, YLG competition, read-out: IC50, replicate 2) was 31.7 µM and the IC50 ([3]; KAI2d4, YLG competition, read-out: IC50, replicate 3) was 26.9 µM. The IC50 ([3]; KAI2d4, average of 3 replicates, read-out: IC50, average) was 29.8 µM, the IC50 ([4]; ShHTL2, YLG competition, read-out: IC50, replicate 1) was 50.6 µM and the IC50 ([4]; ShHTL2, YLG competition, read-out: IC50, replicate 2) was 70.1 µM. For the same compound, the IC50 ([4]; ShHTL2, YLG competition, read-out: IC50, replicate 3) was 65.1 µM, the IC50 ([4]; ShHTL2, average of 3 replicates, read-out: IC50, average) was 61.9 µM and the IC50 ([4]; ShHTL3, YLG competition, read-out: IC50, replicate 1) was over 100 µM. The IC50 ([4]; ShHTL3, YLG competition, read-out: IC50, replicate 2) was over 100 µM, the IC50 ([4]; ShHTL3, YLG competition, read-out: IC50, replicate 3) was over 100 µM and the IC50 ([4]; ShHTL3, average of 3 replicates, read-out: IC50, average) was over 100 µM. It also gave an IC50 ([4]; ShHTL4, YLG competition, read-out: IC50, replicate 1) of 15 µM, an IC50 ([4]; ShHTL4, YLG competition, read-out: IC50, replicate 2) of 21.2 µM and an IC50 ([4]; ShHTL4, YLG competition, read-out: IC50, replicate 3) of 16.4 µM. It also gave an IC50 ([4]; ShHTL4, average of 3 replicates, read-out: IC50, average) of 17.5 µM, an IC50 ([4]; ShHTL5, YLG competition, read-out: IC50, replicate 1) of 48.9 µM and an IC50 ([4]; ShHTL5, YLG competition, read-out: IC50, replicate 2) of 42.2 µM. For the same compound, the IC50 ([4]; ShHTL5, YLG competition, read-out: IC50, replicate 3) was 43 µM, the IC50 ([4]; ShHTL5, average of 3 replicates, read-out: IC50, average) was 44.7 µM and the IC50 ([4]; ShHTL6, YLG competition, read-out: IC50, replicate 1) was 79.2 µM. It also gave an IC50 ([4]; ShHTL6, YLG competition, read-out: IC50, replicate 2) of 55 µM, an IC50 ([4]; ShHTL6, YLG competition, read-out: IC50, replicate 3) of 69.4 µM and an IC50 ([4]; ShHTL6, average of 3 replicates, read-out: IC50, average) of 67.9 µM. It also gave an IC50 ([4]; ShHTL8, YLG competition, read-out: IC50, replicate 1) of 72.8 µM, an IC50 ([4]; ShHTL8, YLG competition, read-out: IC50, replicate 2) of 71.1 µM and an IC50 ([4]; ShHTL8, YLG competition, read-out: IC50, replicate 3) of 75.4 µM. It also gave an IC50 ([4]; ShHTL8, average of 3 replicates, read-out: IC50, average) of 73.1 µM, an IC50 ([4]; ShHTL9, YLG competition, read-out: IC50, replicate 1) of 22.6 µM and an IC50 ([4]; ShHTL9, YLG competition, read-out: IC50, replicate 2) of 24.8 µM. It also gave an IC50 ([4]; ShHTL9, YLG competition, read-out: IC50, replicate 3) of 12.7 µM, an IC50 ([4]; ShHTL9, average of 3 replicates, read-out: IC50, average) of 20.1 µM and an IC50 ([4]; ShHTL10, YLG competition, read-out: IC50, replicate 1) of 69.6 µM. The IC50 ([4]; ShHTL10, YLG competition, read-out: IC50, replicate 2) was 67.6 µM, the IC50 ([4]; ShHTL10, YLG competition, read-out: IC50, replicate 3) was 57.8 µM and the IC50 ([4]; ShHTL10, average of 3 replicates, read-out: IC50, average) was 65 µM. The IC50 ([4]; ShHTL11, YLG competition, read-out: IC50, replicate 1) was 91.9 µM, the IC50 ([4]; ShHTL11, YLG competition, read-out: IC50, replicate 2) was 101 µM and the IC50 ([4]; ShHTL11, YLG competition, read-out: IC50, replicate 3) was 86 µM. The IC50 ([4]; ShHTL11, average of 3 replicates, read-out: IC50, average) was 93 µM.
